Each structure is given as a SMILES string. Where a name gives a salt, the structure may show the parent alone.

The subject of the assay is Acinetobacter baumannii ATCC 17961. The assay is described as follows: Antimicrobial susceptibility testing: 90% growth inhibitory concentration (IC90) determination. The format is cell-based. To be noted: ATCC17961, Acinetobacter baumannii ATCC 17961, Iso-Sensitest broth, read-out: ATCC 17961 IC90. The procedure, abridged: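 Growth was followed kinetically by OD600 at 20-min intervals for 16 h at 35±2 °C, with ~5×10^5 CFU/ml in Iso-Sensitest broth. Compounds were tested as twofold dilutions (e.g. 50–0.097 μM final). The concentration giving 90% inhibition of log-phase growth was reported.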
Regarding `CCc1cc(NC(=O)c2ncc(-c3cn(CC(F)F)nc3C(F)(F)F)n2C)ccc1C(=O)NCCCCCNCC(=O)OC(C)(C)C` [Example 219, tert-butyl (5-(4-(5-(1-(2,2-difluoroethyl)-3-(trifluoromethyl)-1H-pyrazol-4-yl)-1-methyl-1H-imidazole-2-carboxamido)-2-ethylbenzamido)pentyl)glycinate], the IC90 is 245 nM.
For `Cn1c(-c2cn(CC3CC3(F)F)nc2C(F)(F)F)cnc1C(=O)Nc1ccc(C(=O)NC2C3CN(C(=O)C4CCNCC4)CC32)c(Cl)c1` (stereo not shown) [Example 220, N-(3-chloro-4-((3-(piperidine-4-carbonyl)-3-azabicyclo[3.1.0]hexan-6-yl)carbamoyl)phenyl)-5-(1-((2,2-difluorocyclopropyl)methyl)-3-(trifluoromethyl)-1H-pyrazol-4-yl)-1-methyl-1H-imidazole-2-carboxamide formate], the IC90 is 245 nM.
For `Cn1c(-c2cn(C3CC3)nc2C(F)(F)F)cnc1C(=O)Nc1ccc(C(=O)NCCCCCN)c(Cl)c1` [Example 221, N-(4-((5-aminopentyl)carbamoyl)-3-chlorophenyl)-5-(1-cyclopropyl-3-(trifluoromethyl)-1H-pyrazol-4-yl)-1-methyl-1H-imidazole-2-carboxamide hydrochloride], the 90% effect concentration (IC90) was 246 nM.
Regarding `C#CCn1cc(-c2cnc(C(=O)Nc3ccc(C(=O)NCCOCC(C)(C)N)c(CC)c3)n2C)c(C(F)(F)F)n1` [Example 222, N-[4-[2-(2-amino-2-methyl-propoxy)ethylcarbamoyl]-3-ethyl-phenyl]-1-methyl-5-[1-prop-2-ynyl-3-(trifluoromethyl)pyrazol-4-yl]imidazole-2-carboxamide; formic acid], the IC90 was found to be 250 nM.
On to `Cn1c(-c2cn(C3CC3)nc2C(F)(F)F)cnc1C(=O)Nc1ccc(C(=O)N2CCN(C(=O)[C@@H]3CCCNC3)CC2)c(Cl)c1` [Example 223, (R)-N-(3-chloro-4-(4-(piperidine-3-carbonyl)piperazine-1-carbonyl)phenyl)-5-(1-cyclopropyl-3-(trifluoromethyl)-1H-pyrazol-4-yl)-1-methyl-1H-imidazole-2-carboxamide hydrochloride], for which the IC90 amounted to 252 nM.
`Cn1c(-c2cn(C3CC3)nc2C(F)(F)F)cnc1C(=O)Nc1ccc(C(=O)N2CCN(C(=O)C3CNC3)CC2)c(Cl)c1` [Example 224, N-(4-(4-(azetidine-3-carbonyl)piperazine-1-carbonyl)-3-chlorophenyl)-5-(1-cyclopropyl-3-(trifluoromethyl)-1H-pyrazol-4-yl)-1-methyl-1H-imidazole-2-carboxamide hydrochloride]: the IC90 was 256 nM.
Under `Cn1c(-c2cn(C3CC3)nc2C(F)(F)F)cnc1C(=O)Nc1ccc(C(=O)N2CCN(C(=O)N[C@H]3C[C@H](N)C3)CC2)c(Cl)c1` [Example 225, N-(3-aminocyclobutyl)-4-[2-chloro-4-[[5-[1-cyclopropyl-3-(trifluoromethyl)pyrazol-4-yl]-1-methylimidazole-2-carbonyl]amino]benzoyl]pipera-zine-1-carboxamide;formic acid] stands 256 nM.
Under `Cn1c(-c2cn(CC3CC3)nc2C(F)(F)F)cnc1C(=O)Nc1ccc(C(=O)NC2C3CN(C(=O)C4CCNCC4)CC32)c(Cl)c1` (stereo not shown) [Example 227, N-(3-chloro-4-((3-(piperidine-4-carbonyl)-3-azabicyclo[3.1.0]hexan-6-yl)carbamoyl)phenyl)-5-(1-(cyclopropylmethyl)-3-(trifluoromethyl)-1H-pyrazol-4-yl)-1-methyl-1H-imidazole-2-carboxamide formate] stands 262 nM; under `Cn1c(-c2cn(C3CC3)nc2C(F)(F)F)cnc1C(=O)Nc1ccc(C(=O)N2CCN(CCN)CC2)c(Cl)c1` [Example 228, N-(4-(4-(2-aminoethyl)piperazine-1-carbonyl)-3-chlorophenyl)-5-(1-cyclopropyl-3-(trifluoromethyl)-1H-pyrazol-4-yl)-1-methyl-1H-imidazole-2-carboxamide formate], 263 nM; under `Cn1c(-c2cn(C3CC3)nc2C(F)(F)F)cnc1C(=O)Nc1ccc(C(=O)N2CCN(C(=O)[C@@H]3CCNC3)CC2)c(Cl)c1` [Example 229, (R)-N-(3-chloro-4-(4-(pyrrolidine-3-carbonyl)piperazine-1-carbonyl)phenyl)-5-(1-cyclopropyl-3-(trifluoromethyl)-1H-pyrazol-4-yl)-1-methyl-1H-imidazole-2-carboxamide hydrochloride], 263 nM.
For the compound `Cn1c(-c2cn(C3CC3)nc2C(F)(F)F)cnc1C(=O)Nc1ccc(C(=O)N2CCN(C(=O)[C@@H]3CC[C@@H](N)C3)CC2)c(Cl)c1` [Example 230, N-(4-(4-((1R,3R)-3-aminocyclopentane-1-carbonyl)piperazine-1-carbonyl)-3-chlorophenyl)-5-(1-cyclopropyl-3-(trifluoromethyl)-1H-pyrazol-4-yl)-1-methyl-1H-imidazole-2-carboxamide hydrochloride], the IC90 was found to be 266 nM.
Turning to `Cn1c(-c2cn(C3CC3)nc2C(F)(F)F)cnc1C(=O)Nc1ccc(C(=O)N2CCN(C(=O)[C@H]3CC[C@H](N)CC3)CC2)c(Cl)c1` [Example 231, N-[4-[4-(4-aminocyclohexanecarbonyl)piper-azine-1-carbonyl]-3-chlorophenyl]-5-[1-cyclopropyl-3-(trifluoromethyl)pyrazol-4-yl]-1-methylimidazole-2-carboxamide;hydrochloride], the IC90 is 267 nM.
Under `Cn1c(-c2cn(C3CC3)nc2C(F)(F)F)cnc1C(=O)Nc1ccc(C(=O)N2CCN(C(=O)N[C@@H]3CC[C@@H](N)C3)CC2)c(Cl)c1` [Example 232, N-((1R,3R)-3-aminocyclopentyl)-4-(2-chloro-4-(5-(1-cyclopropyl-3-(trifluoromethyl)-1H-pyrazol-4-yl)-1-methyl-1H-imidazole-2-carboxamido)benzoyl)piperazine-1-carboxamide formate] stands 267 nM.
Then `Cn1c(-c2cn(C3CC3)nc2C(F)(F)F)cnc1C(=O)Nc1ccc(C(=O)N2CCN(C(=O)NC3CNC3)CC2)c(Cl)c1` [Example 233, N-(azetidin-3-yl)-4-[2-chloro-4-[[5-[1-cyclopropyl-3-(trifluoromethyl)pyrazol-4-yl]-1-methyl-imidazole-2-carbonyl]amino]benzoyl]pipera-zine-1-carboxamide; formic acid], with 267 nM.
Under `C=C(C)Cn1cc(-c2cnc(C(=O)Nc3ccc(C(=O)N[C@H]4C[C@@H](N)C4)c(Cl)c3)n2C)c(C(F)(F)F)n1` [Example 234, rac-N-(4-(((1s,3s)-3-aminocyclobutyl)carbamoyl)-3-chlorophenyl)-1-methyl-5-(1-(2-methylallyl)-3-(trifluoromethyl)-1H-pyrazol-4-yl)-1H-imidazole-2-carboxamide hydrochloride] stands 268 nM; under `Cn1c(-c2cn(CC(F)F)nc2C(F)(F)F)cnc1C(=O)Nc1ccc(C(=O)NC2C3CN(C(=O)C4CCNCC4)CC32)c(Cl)c1` (stereo not shown) [Example 235, N-(3-chloro-4-((3-(piperidine-4-carbonyl)-3-azabicyclo[3.1.0]hexan-6-yl)carbamoyl)phenyl)-5-(1-(2,2-difluoroethyl)-3-(trifluoromethyl)-1H-pyrazol-4-yl)-1-methyl-1H-imidazole-2-carboxamide formate], 268 nM.
As to `Cn1c(-c2cn(C3CC3)nc2C(F)(F)F)cnc1C(=O)Nc1ccc(C(=O)N2CCN(C(=O)NC3CCNC3)CC2)c(Cl)c1` (stereo not shown) [Example 236, 4-[2-chloro-4-[[5-[1-cyclopropyl-3-(trifluoromethyl)pyrazol-4-yl]-1-methylimidazole-2-carbonyl]amino]benzoyl]-N-pyrrolidin-3-ylpiperazine-1-carboxamide;formic acid], the IC90 stood at 270 nM.
For the compound `CCn1cc(-c2cnc(C(=O)Nc3ccc(C(=O)N4CCC(CCN)CC4)c(Cl)c3)n2C)c(C(F)(F)F)n1` [Example 239, N-(4-(4-(2-aminoethyl)piperidine-1-carbonyl)-3-chlorophenyl)-5-(1-ethyl-3-(trifluoromethyl)-1H-pyrazol-4-yl)-1-methyl-1H-imidazole-2-carboxamide hydrochloride], the IC90 turned out to be 273 nM.
Under `Cn1c(-c2cn(C3CC3)nc2C(F)(F)F)cnc1C(=O)Nc1ccc(C(=O)N2CCN(C(=O)N[C@H]3C[C@@H](N)C3)CC2)c(Cl)c1` [Example 240, rac-N-((1s,3s)-3-aminocyclobutyl)-4-(2-chloro-4-(5-(1-cyclopropyl-3-(trifluoromethyl)-1H-pyrazol-4-yl)-1-methyl-1H-imidazole-2-carboxamido)benzoyl)piperazine-1-carboxamide formate] stands 274 nM; under `Cn1c(-c2cn(Cc3ccccc3)nc2C(F)(F)F)cnc1C(=O)Nc1ccc(C(=O)N2CCN(C(=O)C3CCNCC3)CC2)c(Cl)c1` [Example 241, 5-(1-benzyl-3-(trifluoromethyl)-1H-pyrazol-4-yl)-N-(3-chloro-4-(4-(piperidine-4-carbonyl)piperazine-1-carbonyl)phenyl)-1-methyl-1H-imidazole-2-carboxamide hydrochloride], 281 nM; under `C#CCn1cc(-c2cnc(C(=O)Nc3ccc(C(=O)NCCOCCN)c(CC)c3)n2C)c(C(F)(F)F)n1` [Example 242, N-[4-[2-(2-aminoethoxy)ethylcarbamoyl]-3-ethyl-phenyl]-1-methyl-5-[1-prop-2-ynyl-3-(trifluoromethyl)pyrazol-4-yl]imidazole-2-carboxamide; formic acid], 283 nM.
Then `Cn1c(-c2cn(C3CC3)nc2C(F)(F)F)cnc1C(=O)Nc1ccc(C(=O)N2CCN(C(=O)[C@@H]3CCC[C@@H]3N)CC2)c(Cl)c1` [Example 243, N-(4-(4-((1R,2S)-2-aminocyclopentane-1-carbonyl)piperazine-1-carbonyl)-3-chlorophenyl)-5-(1-cyclopropyl-3-(trifluoromethyl)-1H-pyrazol-4-yl)-1-methyl-1H-imidazole-2-carboxamide hydrochloride], with 286 nM.

Source of the values: patent US11390604B2 (Hoffmann-La Roche Inc., priority 2019, dated 2022).
